Experimental data published in article PMC9317481, “Design and Synthesis of New Hydantoin Acetanilide Derivatives as Anti-NSCLC Targeting EGFR^L858R/T790M Mutations” (Pharmaceuticals, 2022).

Tests used:
Akt = Akt enzyme assay (Phospho-Ser473 ELISA) in A549 cells; assay type: cell-based, human; conditions: read-out: Enzymatic Inhibition, IC50, (nM) Akt
Protocol: Akt expression level was assayed using the Phospho Sandwich Akt (Phospho-Ser473) ELISA Kit (Cat. # MBS9511022, MyBioSource, San Diego, CA, USA) containing the components necessary for the semi-quantitative determination of Akt concentrations within experimental cell lysate samples. The assay was performed according to company protocols: the lysates were diluted with assay diluent and 100 μL/well was dispensed, wrapped with parafilm, and incubated for 2 h. They were shaken with RT or overnight at 4 °C. The plate was washed 3 times with 1× Wash Buffer 300 μL/well with a vacuum-based plate washer. Then, the plate was stricken on absorbent paper to remove as much residual liquid as possible. The Detection Antibody was diluted to 1× and 100 μL/well was dispensed, wrapped with parafilm, and incubated on a shaker for 2 hrs at RT, and the washing step was repeated. Streptavidin-HRP was diluted to 1× and 100 μL/well was dispensed, wrapped with parafilm, and incubated on a shaker for 30 min at RT. Ready-to-use substrate was brought to RT and 100 μL/well was dispensed and the reaction was allowed to incubate on an orbital shaker for 20–30 min. The reaction was stopped with stop solution 100 μL/well. The wells turned from blue to yellow and were read at 450 nm.

ERK = ERK enzyme assay (ELISA) in A549 cells; assay type: cell-based, human; conditions: read-out: Enzymatic Inhibition, IC50, (nM) ERK
Protocol: ERK ELISA Kit (Cat. # E4317-100, BioVision, Inc., Waltham, MA, USA) was used for the in vitro quantitative determination of Human ERK. Firstly, the plate was washed 2 times with Wash Solution before the standard, sample, and control wells were added. A total of 100 μL of each standard or sample was added into appropriate wells. […] The cover was removed and the plate content was discarded without washing or letting the wells completely dry. A total of 0.1 mL of Biotin-detection antibody work solution was added into the above wells. […] The solution was discarded and washed 3 times with Wash Solution. It was washed by filling each well with Wash Buffer (350 μL) using a multi-channel pipette or auto-washer. It was soaked for 1–2 min, and then all residual wash-liquid was removed from the wells by aspiration. After the last wash, any remaining wash buffer was removed by aspirating or decanting. The plate was clapped on absorbent filter papers or other absorbent materials. […] The solution was discarded and washed 5 times with wash solution as mentioned before. […] A total of 50 μL of Stop Solution was added to each well. The result was read at 450 nm within 20 min.

EGFR phosphorylation = target: T1, EGFR phosphorylation (Homo sapiens, UniProt P00533); assay: Western blot of EGFR phosphorylation expression in A549 cells; assay type: cell-based
T1 construct: A549 (harbor EGFR^WT); endogenous in cells; host or cells: A549
Protocol: In addition, the obtained data were attuned to β-actin expression to exclude the deviations further.
The western blot experiment was performed according to the same procedure described earlier.

A549 cells [1] = assay: Cell cycle analysis by flow cytometry in A549 cells; assay type: cell-based, human; conditions: 5a at its IC50 value
Protocol: (§1) The active hydantoin derivative 5a was further investigated for its effect on cell cycle progression and the induction of apoptosis in A549 cells. Exposure of A549 cells to 5a at its IC50 value led to an interference with the normal cell cycle distribution of the cell (Figure 5). […] Meanwhile, 5a was evaluated for its ability to induce apoptosis in A549 cells by staining with propidium iodide and Annexin V-FITC.
(§2) Cell cycle analysis and Annexin V-FITC apoptosis assay were performed as described earlier.
Figure 5 Compound 5a arrested the cell cycle at the sub G1 and S phases in A549 cells. Representative cell cycle distribution data are shown by flow cytometric analysis upon incubation with 5a or DMSO as a negative control for 24 h.

A549 cells [2] = assay: Annexin V-FITC/propidium iodide apoptosis assay in A549 cells; assay type: cell-based, human; conditions: IC50 concentration
Protocol: as §1, §2
Figure 6 Apoptotic effect of compound 5a on A549 cells. Representative cytograms of apoptotic A549 cells stimulated with 5a or DMSO as a negative control for 24 h. TEXT PRINTED IN THE PICTURE: Control: Necrosis 0.94%; Late apoptosis 0.26%; Early apoptosis 0.41% | 5a: Necrosis 11.59%; Late apoptosis 19.89%; Early apoptosis 3.77%

A549 cells [3] = assay: Wound healing assay in A549 cells; assay type: cell-based, human; conditions: 0.5, 1 or 2 µM, 72 h
Protocol: Various articles have highlighted the role of EGFR in the migration of tumor cells. Accordingly, the migratory effects of 5a in A549 cells were assessed using a wound healing assay.
Wound healing assay of 5a was performed using CytoSelect™ 24-well Wound Healing Assay kit (Cat. # CBA-120, Cell Biolabs Inc., Cambridge, UK) per manufacturer’s instructions. In brief, the 24-well plate wound healing inserts were allowed to warm up at room temperature for 10 min., then to each well, 500 µL of A549 cells suspension ([…]) in media containing 10% fetal bovine serum (FBS) was added. Cells were kept in a cell culture incubator until a monolayer formed. Carefully, the insert was removed from the well. The media were slowly aspirated and discarded from the wells. The wells were washed with media to remove dead cells and debris. Finally, the media were added to wells to keep cells hydrated, then wells were visualized under a light microscope. Media containing the indicated concentrations of compound 5a (0.5, 1, or 2 µM) were then added into the wells for 72 h. the wound closure was monitored with a light microscope. The percent closure of the cells into the wound field was measured.

EGFR^L858R = EGFR^L858R (Homo sapiens, UniProt P00533, L858R); assay: EGFR kinase assay (L858R)
EGFR^T790M = EGFR^T790M (Homo sapiens, UniProt P00533, T790M); assay: EGFR kinase assay (T790M)
EGFR^WT = EGFR^WT (Homo sapiens, UniProt P00533); assay: EGFR kinase assay (wild type)
PC9 cells = assay: MTT antiproliferative assay, PC9; conditions: Homo sapiens, PC-9, read-out: IC50 (µM) PC9
A549 cells [4] = assay: MTT antiproliferative assay, A549; conditions: Homo sapiens, A549, read-out: IC50 (µM) A549
H1975 cells = assay: MTT antiproliferative assay, H1975; conditions: Homo sapiens, NCI-H1975, read-out: IC50 (µM) H1975
WI-38 normal cells = assay: MTT cytotoxicity on normal fibroblast WI-38 cells; conditions: for IC50: Homo sapiens, WI-38, read-out: WI-38, IC50 (µM); for fold superior to the reference erlotinib on WI-38: ratio of WI-38 IC50 versus erlotinib
Protocol: The new prepared candidates 5a–5n were evaluated for their antitumor activities against four selected cell lines, the adenocarcinomic human alveolar basal epithelial cells NCI-A549, NCI-H1975, human pulmonary adenocarcinoma PC9, and the fibroblast-like fetal lung cells WI-38 (purchased from American Type Culture Collection (ATCC), United States of America), using an MTT assay [26], as described earlier [27].

[5] = test system: A549, H1975, and PC9 cell lines; assay: MTT antiproliferative assay, average of the three NSCLC cell lines; conditions: Homo sapiens, read-out: IC50 (µM) Average
[6] = A549 cells treated by 5a, Western blot

IC50 (PC9 cells)	IC50 (A549 cells [4])	IC50 (H1975 cells)	IC50 [5]	melting point	SMILES	other results
10.2 ± 0.53 µM	2.26 ± 0.12 µM	1.94 ± 0.25 µM	4.79 µM	–	COc1ccc(NC(=O)CN2C(=O)NC(C)(c3ccccc3)C2=O)cc1OC (stereo not shown) [5a, N -(3,4-dimethoxyphenyl)-2-(4-methyl-2,5-dioxo-4-phenylimidazolidin-1-yl)acetamide]	IC50 (Akt): 33.8 ± 0.55 nM; IC50 (ERK): 25.8 ± 41 nM; OD (EGFR) (EGFR phosphorylation; [6]): 0.79; OD (pEGFR) (EGFR phosphorylation; [6]): 0.33; fold decrease in expression level of EGFR phosphorylation compared to control (EGFR phosphorylation; A549 cells, 0.03 µM of 5a, normalised to β-actin): 2.5 fold; boost of cells at pre-G1 compared to the control (A549 cells [1]): 22 folds; cells at S phase (A549 cells [1]; 24 h): 40.40%; cells at sub G1 phase (A549 cells [1]; 24 h): 35.25%; elevation of early apoptotic cells compared to the negative control (A549 cells [2]): 77 folds; elevation of late apoptotic cells compared to the negative control (A549 cells [2]): 9 folds; Early apoptosis (A549 cells [2]; 24 h): 3.77%; Late apoptosis (A549 cells [2]; 24 h): 19.89%; Necrosis (A549 cells [2]; 24 h): 11.59%; wound closure and migration of A549 cells (A549 cells [3]): reduced the wound closure and the migration of A549 cells substantially in a dose-dependent manner; IC50 (EGFR^L858R): 0.05 ± 0.001 µM; IC50 (EGFR^T790M): 0.09 ± 0.002 µM; IC50 (EGFR^WT): 0.03 ± 0.005 µM; IC50 (WI-38 normal cells): 49.3 ± 2.75 µM; fold superior to the reference erlotinib on WI-38 (WI-38 normal cells): 2.6 fold
5.12 ± 0.56 µM	14.5 ± 0.92 µM	8.2 ± 0.45 µM	9.29 µM	122 to 125 °C	CC1(c2ccccc2)NC(=O)N(CC(=O)Nc2ccc(S(N)(=O)=O)cc2)C1=O (stereo not shown) [5b, N-(4-aminosulphonylphenyl)-2-(4-methyl-2,5-dioxo-4-phenylimidazolidin-1-yl)acetamide]	–
21.3 ± 2.31 µM	91.4 ± 5.75 µM	55.3 ± 3.01 µM	56 µM	163 to 166 °C	COc1ccc(NC(=O)CN2C(=O)NC(C)(c3ccccc3)C2=O)cc1Cl (stereo not shown) [5c, N-(3-chloro-4-methoxyphenyl)-2-(4-methyl-2,5-dioxo-4-phenylimidazolidin-1-yl)acetamide]	–
7.5 ± 0.81 µM	35.8 ± 2.26 µM	11.9 ± 0.65 µM	18.4 µM	170 to 173 °C	COc1ccc(C)cc1NC(=O)CN1C(=O)NC(C)(c2ccccc2)C1=O (stereo not shown) [5d, N-(2-methoxy-5-methylphenyl)-2-(4-methyl-2,5-dioxo-4-phenylimidazolidin-1-yl)acetamide]	–
2.52 ± 0.27 µM	7.19 ± 0.45 µM	9.34 ± 0.51 µM	6.35 µM	226 to 228 °C	CC1(c2ccccc2)NC(=O)N(CC(=O)Nc2ccc(F)cc2)C1=O (stereo not shown) [5e, N-(4-fluorophenyl)-2-(4-methyl-2,5-dioxo-4-phenylimidazolidin-1-yl)acetamide]	–
4.4 ± 0.48 µM	1.94 ± 0.12 µM	1.38 ± 0.07 µM	2.57 µM	153 to 155 °C	CC1(c2ccccc2)NC(=O)N(CC(=O)Nc2ccccc2F)C1=O (stereo not shown) [5f, N-(2-fluorophenyl)-2-(4-methyl-2,5-dioxo-4-phenylimidazolidin-1-yl)acetamide]	IC50 (EGFR^L858R): 0.17 ± 0.003 µM; IC50 (EGFR^T790M): 0.26 ± 0.005 µM; IC50 (EGFR^WT): 0.06 ± 0.011 µM; IC50 (WI-38 normal cells): 42.5 ± 2.32 µM; fold superior to the reference erlotinib on WI-38 (WI-38 normal cells): 2.3 fold
11.5 ± 1.25 µM	37.6 ± 2.37 µM	6.84 ± 0.37 µM	18.7 µM	182 to 185 °C	CC1(c2ccccc2)NC(=O)N(CC(=O)Nc2cccc(F)c2)C1=O (stereo not shown) [5g, N-(3-fluorophenyl)-2-(4-methyl-2,5-dioxo-4-phenylimidazolidin-1-yl)acetamide]	–
15.4 ± 1.67 µM	11.9 ± 0.75 µM	21.3 ± 1.16 µM	16.2 µM	195 to 198 °C	CC1(c2ccccc2)NC(=O)N(CC(=O)Nc2ccc(F)c(F)c2)C1=O (stereo not shown) [5h, N-(3,4-difluorophenyl)-2-(4-methyl-2,5-dioxo-4-phenylimidazolidin-1-yl)acetamide]	–
6.06 ± 0.35 µM	0.73 ± 0.05 µM	14 ± 0.76 µM	6.93 µM	205 to 210 °C	CC1(c2ccccc2)NC(=O)N(CC(=O)Nc2ccc(F)c(F)c2F)C1=O (stereo not shown) [5i, N-(2,3,4-trifluorophenyl)-2-(4-methyl-2,5-dioxo-4-phenylimidazolidin-1-yl)acetamide]	–
9.97 ± 1.08 µM	4.11 ± 0.26 µM	30.9 ± 1.68 µM	15 µM	143 to 146 °C	COc1ccc(NC(=O)CN2C(=O)NC(C)(c3ccccc3)C2=O)c(C)c1 (stereo not shown) [5j, N-(4-methoxy-2-methylphenyl)-2-(4-methyl-2,5-dioxo-4-phenylimidazolidin-1-yl)acetamide]	–
3.25 ± 0.35 µM	68.6 ± 4.32 µM	5.84 ± 0.32 µM	25.9 µM	170 to 173 °C	CC1(c2ccccc2)NC(=O)N(CC(=O)Nc2ccc(F)c(Cl)c2)C1=O (stereo not shown) [5k, N-(3-chloro-4-fluorophenyl)-2-(4-methyl-2,5-dioxo-4-phenylimidazolidin-1-yl)acetamide]	–
6.69 ± 0.73 µM	2.37 ± 0.15 µM	43.8 ± 2.39 µM	17.6 µM	153 to 155 °C	CCOc1ccc(NC(=O)CN2C(=O)NC(C)(c3ccccc3)C2=O)cc1 (stereo not shown) [5l, N-(4-ethoxyphenyl)-2-(4-methyl-2,5-dioxo-4-phenylimidazolidin-1-yl)acetamide]	–
28.3 ± 3.08 µM	12.3 ± 0.78 µM	2.27 ± 0.12 µM	14.3 µM	85 to 90 °C	COc1ccccc1NC(=O)CN1C(=O)NC(C)(c2ccccc2)C1=O (stereo not shown) [5m, N-(2-methoxyphenyl)-2-(4-methyl-2,5-dioxo-4-phenylimidazolidin-1-yl)acetamide]	–
6.87 ± 0.75 µM	0.42 ± 0.03 µM	18.8 ± 1.02 µM	8.7 µM	148 to 151 °C	COc1cccc(NC(=O)CN2C(=O)NC(C)(c3ccccc3)C2=O)c1 (stereo not shown) [5n, N-(3-methoxyphenyl)-2-(4-methyl-2,5-dioxo-4-phenylimidazolidin-1-yl)acetamide]	–
16.3 ± 0.84 µM	7.81 ± 0.43 µM	9.7 ± 0.53 µM	11.3 µM	–	C#Cc1cccc(Nc2ncnc3cc(OCCOC)c(OCCOC)cc23)c1 [Erlotinib, erlotinib, reference compound]	IC50 (Akt): 25.4 nM; IC50 (ERK): 17.5 ± 0.18 nM; IC50 (WI-38 normal cells): 18.6 ± 1.24 µM
